Laboratory results as given in patent publication US4742045A, “Glycopeptide antibiotics” (SmithKline Beckman Corporation, priority 1986, dated 1988).
Converted amounts (≈) assume the structure as drawn. Read-outs that look alike come from different tables or passages of the source.

Tests used:
Staphylococcus aureus = test: standard microtiter assay, minimum inhibitory concentration; type: cell-based; settings: for MIC: Staphylococcus aureus, read-out: minimum inhibitory concentration
Excerpt: (§1) Representative results of standard microtiter assays are reported in Tables 1, 2 and 3 which follow, as the minimum inhibitory concentration of antibiotic (μg/ml).
(§2) In Table 1, test organisms 1-13 were different strains of Staphylococcus aureus, and 14-16 were different strains of Staphylococcus epidermidis. In Table 2, test organisms 1-5 were different strains of S. aureus; 6, 8, 12 and 14 were different strains of S. epidermidis; 7 was a Staphylococcus haemolyticus; 9 and 10 were different strains of Streptococcus faecalis; 11 was a Streptococcus pyogenes; and 13 was a Staphylococcus saprophyticus. In Table 3, test organisms 1-3 were different strains of S. aureus; 4 and 6 were different strains of S. epidermidis; 5 was a S. haemolyticus and 7 and 8 were different strains of Streptococcus faecalis. Except where individual components are indicated, the CWI-785 antibiotic employed was the CWI-785 complex; in some cases, HCl salts of the CWI-785 antibiotic were employed.
(§3) The number of strains tested is shown in parentheses below each organism. The average MIC is reported in μg/ml.
(§4) In Table 5 are shown data from standard microtiter assays carried out in a presence of no serum, 50% human serum (hum.) and 50% mouse serum (mse.). The test organisms were 1: S. aureus; 2,4 and 5: different strains of S. epidermidis; 3: S. haemolyticus; 6: S. saprophyticus; 7 and 8: different strains of S. faecalis.

Streptococcus faecalis = test: as above; type: cell-based
Excerpt: as §1, §2, §3, §4

[1] = tested on: Staphylococcus epidermidis; test: as above; type: cell-based
Excerpt: as §1, §2, §4

[2] = tested on: Staphylococcus haemolyticus; test: as above; type: cell-based; settings: Table 3 test organism 5, S. haemolyticus
Excerpt: as §1, §2, §4

STAPH. AUREUS HH 127 = test: prophylactic activity, dosing preinfection; type: in vivo, mice; settings: for survival printed in parentheses under ED 50: Table 8, printed with ED 50 <0.156
[3] = tested on: buffered rumen fluid from a donor steer; test: 23 hour flask rumen fermentation, volatile fatty acid production
Method: The effects of each additive on 23 hour flask rumen fermentation were assayed. Each flask contained 10 ml of rumen fluid and 10 ml of nutrient broth comprising (mg/flask): casein hydrolysate: 20, maltose: 100, urea: 15, solka floc (cellulose): 400 and starch: 100. The flasks were incubated on a shaker at 39° C.
In Table A, ACE is acetate, PRO is propionate, IBU is isobutyrate, BUT is butyrate, IVA is isovalerate, VAL is valerate, TOTAL is total VFA and %PR is the amount of propionate relative to TOTAL. Amounts of each VFA are reported as percentages of control ruminant fluid, that is, without additive.

cecum fluid from a swine = test: swine in vitro model, cecum fluid incubation
Method: The swine in vitro model was carried by incubating 1.5 ml of cecum fluid, from a swine fed normal rations, mixed with 1.5 ml of a nutrient broth (3 mg casein hydrolysate, 30 mg maltose, 1.25 mg urea, 0.5 mg lysine, and 30 mg cellobiose) and with up to 166.67 parts per million of a selected growth promotant at 39° C., with oscillation, for about 4-5 hours. Results, percentage of control, are reported in the following table in which all abbreviations are as above and LLAC means L-lactate, ETOH means ethanol and GLU means glucose.

[4] = Table 3 test organism 1, S. aureus strain
[5] = Table 3 test organism 2, S. aureus strain
[6] = Table 3 test organism 3, S. aureus strain
[7] = Table 3 test organism 7, Streptococcus faecalis strain
[8] = Table 3 test organism 8, Streptococcus faecalis strain
[9] = Table 3 test organism 4, S. epidermidis strain
[10] = Table 3 test organism 6, S. epidermidis strain
[11] = Table 7, vs Staph. aureus HH 127 (S.C.), read-out: ED50
[12] = Table 7: 40 mg/kg, 4 hr preinfection, S.C.
[13] = Table 8, vs Staph. aureus HH 127 (I.V.)
[14] = Table 8: 40 mg/kg (I.V.), 6 hr preinfection

## CN[C@H](C(=O)NC1C(=O)NC(CCSC)C(=O)NC2C(=O)NC3C(=O)NC(C(=O)NC(C(=O)O)c4cc(O)cc(O)c4-c4cc3ccc4O)C(O)c3ccc(c(Cl)c3)Oc3cc2cc(c3O)Oc2ccc(cc2)C1O)c1ccc(O)cc1 (some centres unmarked) [CWI-785B"-aglycone]
Staphylococcus aureus; [4]
  minimum inhibitory concentration: 25.0 µg/mL (≈ 21.5 µM)
Staphylococcus aureus; [5]
  minimum inhibitory concentration: 25.0 µg/mL (≈ 21.5 µM)
Staphylococcus aureus; [6]
  minimum inhibitory concentration: 25.0 µg/mL (≈ 21.5 µM)
Streptococcus faecalis; [7]
  minimum inhibitory concentration: 3.1 µg/mL (≈ 2.67 µM)
Streptococcus faecalis; [8]
  minimum inhibitory concentration: 1.6 µg/mL (≈ 1.38 µM)
[1]; [9]
  minimum inhibitory concentration: 25.0 µg/mL (≈ 21.5 µM)
[1]; [10]
  minimum inhibitory concentration: 25.0 µg/mL (≈ 21.5 µM)
[2]
  minimum inhibitory concentration: 50.0 µg/mL (≈ 43 µM)

## CN[C@@H](C(=O)NC1C(=O)NC(CCSC)C(=O)NC2C(=O)NC3C(=O)NC(C(=O)NC(C(=O)O)c4cc(O)cc(O)c4-c4cc3ccc4O)C(O)c3ccc(c(Cl)c3)Oc3cc2cc(c3O)Oc2ccc(cc2)C1O)c1ccc(O)cc1 (some centres unmarked) [CWI-785B'-aglycone]
Staphylococcus aureus; [4]
  minimum inhibitory concentration: 3.1 µg/mL (≈ 2.67 µM)
Staphylococcus aureus; [5]
  minimum inhibitory concentration: 3.1 µg/mL (≈ 2.67 µM)
Staphylococcus aureus; [6]
  minimum inhibitory concentration: 3.1 µg/mL (≈ 2.67 µM)
Streptococcus faecalis; [7]
  minimum inhibitory concentration: 0.8 µg/mL (≈ 0.688 µM)
Streptococcus faecalis; [8]
  minimum inhibitory concentration: 0.8 µg/mL (≈ 0.688 µM)
[1]; [9]
  minimum inhibitory concentration: 3.1 µg/mL (≈ 2.67 µM)
[1]; [10]
  minimum inhibitory concentration: 6.3 µg/mL (≈ 5.42 µM)
[2]
  minimum inhibitory concentration: 6.3 µg/mL (≈ 5.42 µM)

## CNC(C(=O)NC1C(=O)NC(CC[S+](C)[O-])C(=O)NC2C(=O)NC3C(=O)NC(C(=O)NC(C(=O)O)c4cc(O)cc(O)c4-c4cc3ccc4O)C(OC3CC(N)C(O)C(C)O3)c3ccc(c(Cl)c3)Oc3cc2cc(c3O)Oc2ccc(cc2)C1O)c1ccc(O)cc1.Cl (centres unmarked) [HPB3 hydrochloride]
STAPH. AUREUS HH 127; [11]
  ED50: 1.25 mg/kg
STAPH. AUREUS HH 127; [12]
  PERCENT SURVIVAL: 100%
STAPH. AUREUS HH 127
  survival printed in parentheses under ED 50: 90%
STAPH. AUREUS HH 127; [13]
  ED50: < 0.156 mg/kg
STAPH. AUREUS HH 127; [14]
  PERCENT SURVIVAL: 60%

## CNC(C(=O)NC1C(=O)NC(CCSC)C(=O)NC2C(=O)NC3C(=O)NC(C(=O)NC(C(=O)O)c4cc(O)cc(O)c4-c4cc3ccc4O)C(OC3CC(N)C(O)C(C)O3)c3ccc(c(Cl)c3)Oc3cc2cc(c3O)Oc2ccc(cc2)C1O)c1ccc(O)cc1.Cl (centres unmarked) [HPB4 hydrochloride]
STAPH. AUREUS HH 127; [11]
  ED50: 1.25 mg/kg
STAPH. AUREUS HH 127; [12]
  PERCENT SURVIVAL: 100%
STAPH. AUREUS HH 127
  survival printed in parentheses under ED 50: 100%
STAPH. AUREUS HH 127; [13]
  ED50: < 0.156 mg/kg
STAPH. AUREUS HH 127; [14]
  PERCENT SURVIVAL: 100%

## COc1cccc(OC)c1C(=O)N[C@@H]1C(=O)N2[C@@H]1SC(C)(C)[C@@H]2C(=O)O [Methicillin]
Staphylococcus aureus; Table 1 test organism 1, S. aureus strain
  MIC: 3.1 µg/mL (≈ 8.15 µM)
Staphylococcus aureus; Table 1 test organism 2, S. aureus strain
  MIC: 12.5 µg/mL (≈ 32.9 µM)
Staphylococcus aureus; Table 1 test organism 3, S. aureus strain
  MIC: 6.3 µg/mL (≈ 16.6 µM)
Staphylococcus aureus; Table 1 test organism 4, S. aureus strain
  MIC: 12.5 µg/mL (≈ 32.9 µM)
Staphylococcus aureus; Table 1 test organism 5, S. aureus strain
  MIC: 12.5 µg/mL (≈ 32.9 µM)
Staphylococcus aureus; Table 1 test organism 6, S. aureus strain
  MIC: 12.5 µg/mL (≈ 32.9 µM)
Staphylococcus aureus; Table 1 test organism 7, S. aureus strain
  MIC: > 50 µg/mL
Staphylococcus aureus; Table 1 test organism 8, S. aureus strain
  MIC: > 50 µg/mL
Staphylococcus aureus; Table 1 test organism 9, S. aureus strain
  MIC: > 50 µg/mL
Staphylococcus aureus; Table 1 test organism 10, S. aureus strain
  MIC: > 50 µg/mL
Staphylococcus aureus; Table 1 test organism 11, S. aureus strain
  MIC: > 50 µg/mL
Staphylococcus aureus; Table 1 test organism 12, S. aureus strain
  MIC: 50 µg/mL (≈ 131 µM)
Staphylococcus aureus; Table 1 test organism 13, S. aureus strain
  MIC: > 50 µg/mL
[1]; Staphylococcus epidermidis, Table 1 test organism 14, S. epidermidis strain, read-out: minimum inhibitory concentration
  MIC: 1.6 µg/mL (≈ 4.21 µM)
[1]; Table 1 test organism 15, S. epidermidis strain
  minimum inhibitory concentration: 1.6 µg/mL (≈ 4.21 µM)
[1]; Table 1 test organism 16, S. epidermidis strain
  minimum inhibitory concentration: 1.6 µg/mL (≈ 4.21 µM)

## CC[C@@]1([C@@H]2O[C@@H]([C@H]3O[C@@](O)(CO)[C@H](C)C[C@@H]3C)C[C@@H]2C)CC[C@H]([C@]2(C)CC[C@]3(C[C@H](O)[C@@H](C)[C@@H]([C@@H](C)[C@@H](OC)[C@H](C)C(=O)O)O3)O2)O1 [Monensin, monensin]
[3]; 0.50 PPM
  ACE (acetate): 108 percentages of control
  BUT (butyrate): 100 percentages of control
  IBU (isobutyrate): 101 percentages of control
  IVA (isovalerate): 246 percentages of control
  PRO (propionate): 96 percentages of control
  TOTAL (total VFA): 105 percentages of control
  VAL (valerate): 114 percentages of control
[3]; 5.00 PPM
  ACE (acetate): 96 percentages of control
  BUT (butyrate): 60 percentages of control
  IBU (isobutyrate): 77 percentages of control
  IVA (isovalerate): 106 percentages of control
  PRO (propionate): 174 percentages of control
  TOTAL (total VFA): 103 percentages of control
  VAL (valerate): 41 percentages of control
[3]; 50.00 PPM
  ACE (acetate): 91 percentages of control
  BUT (butyrate): 53 percentages of control
  IBU (isobutyrate): 104 percentages of control
  IVA (isovalerate): 134 percentages of control
  PRO (propionate): 211 percentages of control
  VAL (valerate): 38 percentages of control

## Virginiamycin
Cecum fluid from a swine; 1.67 PPM
  % PR (propionate relative to TOTAL): 99% OF CONTROL
  ACE (acetate): 138% OF CONTROL
  BUT (butyrate): 178% OF CONTROL
  ETOH (ethanol): 309% OF CONTROL
  GLU (glucose): 152% OF CONTROL
  IBU (isobutyrate): 0% OF CONTROL
  IVA (isovalerate): 251% OF CONTROL
  LLAC (L-lactate): 17% OF CONTROL
  PRO (propionate): 147% OF CONTROL
  TOTAL (total VFA): 148% OF CONTROL
  VAL (valerate): 262% OF CONTROL
Cecum fluid from a swine; 16.67 PPM
  % PR (propionate relative to TOTAL): 81% OF CONTROL
  ACE (acetate): 58% OF CONTROL
  BUT (butyrate): 95% OF CONTROL
  ETOH (ethanol): 273% OF CONTROL
  GLU (glucose): 151% OF CONTROL
  IBU (isobutyrate): 0% OF CONTROL
  IVA (isovalerate): 40% OF CONTROL
  LLAC (L-lactate): 32% OF CONTROL
  PRO (propionate): 42% OF CONTROL
  TOTAL (total VFA): 52% OF CONTROL
  VAL (valerate): 113% OF CONTROL
Cecum fluid from a swine; 166.67 PPM
  % PR (propionate relative to TOTAL): 59% OF CONTROL
  ACE (acetate): 45% OF CONTROL
  BUT (butyrate): 83% OF CONTROL
  ETOH (ethanol): 0% OF CONTROL
  GLU (glucose): 151% OF CONTROL
  IBU (isobutyrate): 0% OF CONTROL
  IVA (isovalerate): 56% OF CONTROL
  LLAC (L-lactate): 39% OF CONTROL
  PRO (propionate): 20% OF CONTROL
  TOTAL (total VFA): 34% OF CONTROL
  VAL (valerate): 84% OF CONTROL
